Experimental data published in US5714467A, “Antibacterial and antimalarial hybrid peptides” (The Rockefeller University, priority 1993, dated 1998).
Where no end group is shown, it is not given here.

Test system: Sheep Red Cells
Assay: lysis of sheep red blood cells (lysis assay or SRC plate assay)
Type: cell-based
Conditions: for Lethal concentration, SRC = Sheep Red Cells: Table 3; for concentration lytic to sheep red blood cells: running text
Procedure: These values were obtained by either the lysis assay normally used for melittin or by an adaptation of the antibacterial inhibition zone assay of the above-cited Hultmark et al articles to plates with sheep red cells (SRC). With respect to the latter, sterile agarose plates contained 6 ml of medium With 1% agarose, 0.9% NaCl and 10% SRC suspended in Alsevers solution. A dilution series of peptide was applied in 3 mm wells each loaded with 3 μl of the respective samples. The plates were incubated at 30° C. for 24 h, the zones were recorded and LC values calculated as described in the Hultmark et al articles. Clear zones were recorded after a few hours of incubation and the use of such data gave an LC value of the same order as readings after 24 h. This plate assay is faster and more convenient than the lysis assay normally used for melittin.

[1] = Table 2, footnote a: incubation overnight at 30° C. as well as at 37° C.
[2] = Table 2, no incubation footnote

Compound | Lethal concentration, SRC = Sheep Red Cells | Lethal concentration, Sheep Red Cells [2] | also measured
KWKLFKKIEKVGQNIRDGGIGAVLKV-NH2 [CA(1-18)M(1-8)] | 600 µM | – | –
CC[C@H](C)[C@H](NC(=O)[C@H](CC(C)C)NC(=O)[C@H](C)NC(=O)[C@@H]1CCCN1C(=O)[C@H](CC(C)C)NC(=O)CNC(=O)[C@@H](NC(=O)[C@@H](NC(=O)[C@H](CC(C)C)NC(=O)[C@@H](NC(=O)[C@H](CCCCN)NC(=O)[C@H](CC(C)C)NC(=O)[C@@H](NC(=O)[C@H](C)NC(=O)CNC(=O)[C@@H](NC(=O)CNC(=O)[C@H](CCC(=O)O)NC(=O)[C@@H](NC(=O)[C@H](CCCCN)NC(=O)[C@H](CCCCN)NC(=O)[C@H](Cc1ccccc1)NC(=O)[C@H](CC(C)C)NC(=O)[C@H](CCCCN)NC(=O)[C@H](Cc1c[nH]c2ccccc12)NC(=O)[C@@H](N)CCCCN)[C@@H](C)CC)[C@@H](C)CC)C(C)C)C(C)C)[C@@H](C)O)[C@@H](C)O)C(N)=O [CA(1-9)M(1-17)] | 600 µM | – | –
CC[C@H](C)[C@H](NC(=O)CNC(=O)[C@H](CCC(N)=O)NC(=O)CNC(=O)[C@@H](NC(=O)[C@H](CCCCN)NC(=O)[C@H](CCC(=O)O)NC(=O)[C@@H](NC(=O)[C@H](CCCCN)NC(=O)[C@H](CCCCN)NC(=O)[C@H](Cc1ccccc1)NC(=O)[C@H](CC(C)C)NC(=O)[C@H](CCCCN)NC(=O)[C@H](Cc1c[nH]c2ccccc12)NC(=O)[C@@H](N)CCCCN)[C@@H](C)CC)C(C)C)C(=O)NCC(=O)N[C@@H](C)C(=O)N[C@H](C(=O)N[C@@H](CC(C)C)C(=O)N[C@@H](CCCCN)C(=O)N[C@H](C(=O)N[C@@H](CC(C)C)C(=O)N[C@H](C(=O)N[C@H](C(=O)NCC(=O)N[C@@H](CC(C)C)C(N)=O)[C@@H](C)O)[C@@H](C)O)C(C)C)C(C)C [CA(1-13)M(1-13)] | – | – | Lethal concentration, Sheep Red Cells [1]: > 200 µM; concentration lytic to sheep red blood cells: ≥ 100 µM; concentration lytic to sheep red blood cells (listed as CA(1-13) M(1-13)): greater than 200 μM
KWKLFKKIGIGAVLKVLT-NH2 [CA(1-8)M(1-10)] | – | > 600 µM | –
CC[C@H](C)[C@H](NC(=O)CNC(=O)[C@H](CCCNC(=N)N)NC(=O)CNC(=O)[C@H](CCSC)NC(=O)[C@H](CCCCN)NC(=O)[C@H](CCC(=O)O)NC(=O)[C@@H](NC(=O)[C@H](CCCCN)NC(=O)[C@H](CCCCN)NC(=O)[C@H](Cc1ccccc1)NC(=O)[C@@H](NC(=O)[C@H](CCCCN)NC(=O)[C@H](Cc1c[nH]c2ccccc12)NC(=O)[C@@H](N)CCCCN)C(C)C)[C@@H](C)CC)C(=O)NCC(=O)N[C@@H](C)C(=O)N[C@H](C(=O)N[C@@H](CC(C)C)C(=O)N[C@@H](CCCCN)C(=O)N[C@H](C(=O)N[C@@H](CC(C)C)C(=O)N[C@H](C(=O)N[C@H](C(=O)NCC(=O)N[C@@H](CC(C)C)C(N)=O)[C@@H](C)O)[C@@H](C)O)C(C)C)C(C)C [CB(1-13)M(1-13)] | 400 µM | – | –
KWKLFKKIGAVLKVL-NH2 [CA(1-7)M(2-9)] | – | > 600 µM | –
CC[C@H](C)[C@H](NC(=O)CN)C(=O)NCC(=O)N[C@@H](C)C(=O)N[C@H](C(=O)N[C@@H](CC(C)C)C(=O)N[C@@H](CCCCN)C(=O)N[C@H](C(=O)N[C@@H](CC(C)C)C(=O)N[C@H](C(=O)N[C@H](C(=O)NCC(=O)N[C@@H](CC(C)C)C(=O)N[C@@H](CCCCN)C(=O)N[C@@H](Cc1c[nH]c2ccccc12)C(=O)N[C@@H](CCCCN)C(=O)N[C@@H](CC(C)C)C(=O)N[C@@H](Cc1ccccc1)C(=O)N[C@@H](CCCCN)C(=O)N[C@@H](CCCCN)C(=O)N[C@H](C(=O)N[C@@H](CCC(=O)O)C(=O)N[C@@H](CCCCN)C(=O)N[C@H](C(=O)NCC(=O)N[C@@H](CCC(N)=O)C(=O)N[C@@H](CC(N)=O)C(=O)N[C@H](C(=O)N[C@@H](CCCNC(=N)N)C(=O)N[C@@H](CC(=O)O)C(=O)NCC(=O)N[C@H](C(=O)N[C@H](C(=O)N[C@@H](CCCCN)C(=O)N[C@@H](C)C(N)=O)[C@@H](C)CC)[C@@H](C)CC)[C@@H](C)CC)C(C)C)[C@@H](C)CC)[C@@H](C)O)[C@@H](C)O)C(C)C)C(C)C [M(1-13)CA(1-22)] | 40 µM | – | –
KWKLFKKVLKVLTTG-NH2 [CA(1-7)M(5-12)] | – | > 500 µM | –
CC[C@H](C)[C@H](NC(=O)CNC(=O)[C@@H]1CCCN1C(=O)CNC(=O)[C@H](C)NC(=O)[C@H](CCCCN)NC(=O)[C@@H](NC(=O)[C@@H](NC(=O)CNC(=O)[C@H](CC(=O)O)NC(=O)[C@H](CCCNC(=N)N)NC(=O)[C@@H](NC(=O)[C@H](CC(N)=O)NC(=O)[C@H](CCC(N)=O)NC(=O)CNC(=O)[C@@H](NC(=O)[C@H](CCCCN)NC(=O)[C@H](CCC(=O)O)NC(=O)[C@@H](NC(=O)[C@H](CCCCN)NC(=O)[C@H](CCCCN)NC(=O)[C@H](Cc1ccccc1)NC(=O)[C@H](CC(C)C)NC(=O)[C@H](CCCCN)NC(=O)[C@H](Cc1c[nH]c2ccccc12)NC(=O)[C@@H](N)CCCCN)[C@@H](C)CC)C(C)C)[C@@H](C)CC)[C@@H](C)CC)[C@@H](C)CC)C(=O)NCC(=O)N[C@@H](C)C(=O)N[C@H](C(=O)N[C@@H](CC(C)C)C(=O)N[C@@H](CCCCN)C(=O)N[C@H](C(=O)N[C@@H](CC(C)C)C(=O)N[C@H](C(=O)N[C@H](C(=O)NCC(=O)N[C@@H](CC(C)C)C(N)=O)[C@@H](C)O)[C@@H](C)O)C(C)C)C(C)C [CA(1-24)M(1-13)] | – | – | Lethal concentration, Sheep Red Cells [1]: > 200 µM; concentration lytic to sheep red blood cells: ≥ 100 µM
CC[C@H](C)[C@H](NC(=O)CNC(=O)[C@@H](NC(=O)[C@H](CCCCN)NC(=O)[C@H](CCCCN)NC(=O)[C@H](Cc1ccccc1)NC(=O)[C@H](CC(C)C)NC(=O)[C@H](CCCCN)NC(=O)[C@H](Cc1c[nH]c2ccccc12)NC(=O)[C@@H](N)CCCCN)[C@@H](C)CC)C(=O)NCC(=O)N[C@@H](C)C(=O)N[C@H](C(=O)N[C@@H](CC(C)C)C(=O)N[C@@H](CCCCN)C(=O)N[C@H](C(=O)N[C@@H](CC(C)C)C(=O)N[C@H](C(=O)N[C@H](C(=O)NCC(=O)N[C@@H](CC(C)C)C(=O)N1CCC[C@H]1C(=O)N[C@@H](C)C(=O)N[C@@H](CC(C)C)C(=O)N[C@H](C(=O)N[C@@H](CO)C(N)=O)[C@@H](C)CC)[C@@H](C)O)[C@@H](C)O)C(C)C)C(C)C [CA(1-8)M(1-18)] | 600 µM | – | –
KWKLFKKGIGAVLKV-NH2 [CA(1-7)M(1-8)] | – | > 200 µM | –
KWKLFKKLKVLTTGL-NH2 [CA(1-7)M(6-13)] | – | > 500 µM | –
KWKLFKKGAVLKVLT-NH2 [CA(1-7)M(3-10)] | – | > 600 µM | –
KWKLFKKAVLKVLTT-NH2 [CA(1-7)M(4-11)] | – | > 600 µM | –
CC[C@H](C)[C@H](NC(=O)CNC(=O)[C@H](CCC(N)=O)NC(=O)[C@H](CCC(N)=O)NC(=O)[C@H](CCCNC(=N)N)NC(=O)[C@H](CCCCN)NC(=O)[C@H](CCCNC(=N)N)NC(=O)[C@H](CCCCN)NC(=O)[C@@H](NC(=O)[C@H](Cc1c[nH]c2ccccc12)NC(=O)[C@H](CO)NC(=O)[C@@H](NC(=O)[C@@H](N)CC(C)C)[C@@H](C)CC)[C@@H](C)CC)C(=O)NCC(=O)N[C@@H](C)C(=O)N[C@H](C(=O)N[C@@H](CC(C)C)C(=O)N[C@@H](CCCCN)C(=O)N[C@H](C(=O)N[C@@H](CC(C)C)C(=O)N[C@H](C(=O)N[C@H](C(=O)NCC(=O)N[C@@H](CC(C)C)C(N)=O)[C@@H](C)O)[C@@H](C)O)C(C)C)C(C)C [M(16-26)M(1-13)] | – | – | improvement in red cell lysis concentration over natural melittin (240 μM versus 4-6 μM): 40-60 fold; Lethal concentration, Sheep Red Cells [1]: > 200 µM; concentration lytic to sheep red blood cells: > 240 µM
KWKLFKKIEKVGQNIRDGIGAVLKVL-NH2 [CA(1-17)M(1-9)] | 600 µM | – | –
